# From patent publication US20100105655A1, “NOVEL COMPOUNDS 515” (ASTRAZENECA AB, priority 2008, published 2010)
# Biological target: T1, IGFR kinase (Homo sapiens, UniProt P08069)
# T1 construct: purchased Millipore
# Assay: Enzyme assay (c), IGFR kinase, Caliper LabChip
# Type: biochemical
# Conditions: 30 nM IGFR kinase, 6 uM ATP, 3 uM peptide mix; read-out: IGFR IC50
# T1 sequence (P08069 31-1367): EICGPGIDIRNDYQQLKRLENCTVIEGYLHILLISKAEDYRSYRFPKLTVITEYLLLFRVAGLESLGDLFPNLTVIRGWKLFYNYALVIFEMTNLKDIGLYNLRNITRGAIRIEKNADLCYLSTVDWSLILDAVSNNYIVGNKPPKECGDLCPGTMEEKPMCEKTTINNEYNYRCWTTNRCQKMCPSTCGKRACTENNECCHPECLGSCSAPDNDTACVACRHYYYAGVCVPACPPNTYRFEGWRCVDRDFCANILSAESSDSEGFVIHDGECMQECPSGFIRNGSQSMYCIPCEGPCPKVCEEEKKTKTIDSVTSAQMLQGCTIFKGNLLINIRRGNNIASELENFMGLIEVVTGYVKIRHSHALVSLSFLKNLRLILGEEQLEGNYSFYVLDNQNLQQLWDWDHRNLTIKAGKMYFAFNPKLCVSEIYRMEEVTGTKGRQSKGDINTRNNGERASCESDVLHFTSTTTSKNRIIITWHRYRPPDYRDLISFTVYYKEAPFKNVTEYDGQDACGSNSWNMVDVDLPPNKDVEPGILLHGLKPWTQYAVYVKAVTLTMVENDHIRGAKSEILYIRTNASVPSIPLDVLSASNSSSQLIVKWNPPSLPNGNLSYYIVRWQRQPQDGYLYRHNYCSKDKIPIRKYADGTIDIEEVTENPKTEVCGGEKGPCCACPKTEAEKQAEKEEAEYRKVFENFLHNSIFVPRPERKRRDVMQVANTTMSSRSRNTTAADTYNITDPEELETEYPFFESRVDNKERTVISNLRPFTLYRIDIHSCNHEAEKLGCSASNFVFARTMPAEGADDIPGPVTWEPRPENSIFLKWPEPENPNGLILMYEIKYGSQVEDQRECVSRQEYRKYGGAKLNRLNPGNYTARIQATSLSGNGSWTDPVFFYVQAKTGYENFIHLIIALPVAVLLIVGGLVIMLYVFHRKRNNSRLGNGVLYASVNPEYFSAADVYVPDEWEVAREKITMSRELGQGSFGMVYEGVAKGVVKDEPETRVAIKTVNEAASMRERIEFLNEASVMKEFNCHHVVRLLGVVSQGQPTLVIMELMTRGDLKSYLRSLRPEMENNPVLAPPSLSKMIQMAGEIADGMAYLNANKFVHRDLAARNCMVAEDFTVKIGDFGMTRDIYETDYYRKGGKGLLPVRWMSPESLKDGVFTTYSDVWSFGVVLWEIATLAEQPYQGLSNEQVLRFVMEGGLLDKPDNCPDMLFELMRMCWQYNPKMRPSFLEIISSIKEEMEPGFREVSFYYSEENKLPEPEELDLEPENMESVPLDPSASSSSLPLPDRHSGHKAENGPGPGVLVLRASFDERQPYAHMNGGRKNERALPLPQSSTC
row,Compound,IC50 [nM]
1,"COc1cc(OC[C@H]2CCCN2)ccc1Nc1ncc(C)c(-c2cnc3ccccn23)n1 [Example 102, 4-imidazo[1,2-a]pyridin-3-yl-N-[2-methoxy-4-[[(2R)-pyrrolidin-2-yl]methoxy]phenyl]-5-methyl-pyrimidin-2-amine]",54
2,"COc1cc(CC(=O)N2CCNCC2)ccc1Nc1ncc(Cl)c(-c2cnc3ccccn23)n1 [Example 34, 2-[4-[(5-chloro-4-imidazo[1,2-a]pyridin-3-yl-pyrimidin-2-yl)amino]-3-methoxy-phenyl]-1-piperazin-1-yl-ethanone]",98
3,"COc1ccc(N2CCN(C(=O)CN(C)C)CC2)cc1Nc1ncc(Cl)c(-c2cnn3ccccc23)n1 [Example 152, 1-[4-[3-[(5-chloro-4-pyrazolo[1,5-a]pyridin-3-yl-pyrimidin-2-yl)amino]-4-methoxy-phenyl]piperazin-1-yl]-2-(dimethylamino)ethanone]",25
4,"COc1cc(N2CCN(C[C@@H](O)CO)CC2)ccc1Nc1ncc(C)c(-c2cnc3ccccn23)n1 [Example 267, (2R)-3-[4-[4-[(4-imidazo[1,2-a]pyridin-3-yl-5-methyl-pyrimidin-2-yl)amino]-3-methoxy-phenyl]piperazin-1-yl]propane-1,2-diol]",27
5,"COc1cc(C)c(Nc2ncc(Br)c(-c3cnc4ccccn34)n2)cc1OC [Example 124, 5-bromo-N-(4,5-dimethoxy-2-methyl-phenyl)-4-imidazo[1,2-a]pyridin-3-yl-pyrimidin-2-amine]",31
6,"COc1cc(CC(CO)CO)ccc1Nc1ncc(Cl)c(-c2cnn3ccccc23)n1 [Example 190, 2-[[4-[(5-chloro-4-pyrazolo[1,5-a]pyridin-3-yl-pyrimidin-2-yl)amino]-3-methoxy-phenyl]methyl]propane-1,3-diol]",2
7,"CCOc1cc(N2CCN(C)CC2)ccc1Nc1ncc(Br)c(-c2cnc3ccccn23)n1 [Example 122, 5-bromo-N-[2-ethoxy-4-(4-methylpiperazin-1-yl)phenyl]-4-imidazo[1,2-a]pyridin-3-yl-pyrimidin-2-amine]",8
8,"COc1cc(C2CCN(C(=O)CO)CC2)ccc1Nc1ncc(C#N)c(-c2cnn3ccccc23)n1 [Example 240, 2-[4-[1-(2-hydroxyacetyl)-4-piperidyl]-2-methoxy-anilino]-4-pyrazolo[1,5-a]pyridin-3-yl-pyrimidine-5-carbonitrile]",3

# More lines, now with the values ahead:
row,IC50 [nM],Compound
1,17,"COc1cc(CN2CC[C@@H](O)C2)ccc1Nc1ncc(Cl)c(-c2cnc3ccccn23)n1 [Example 21.18, (3R)-1-[[4-[(5-chloro-4-imidazo[1,2-a]pyridin-3-yl-pyrimidin-2-yl)amino]-3-methoxy-phenyl]methyl]pyrrolidin-3-ol]"
2,18,"COc1cc(OC2CCN(C(=O)[C@H](C)O)CC2)ccc1Nc1ncc(Cl)c(-c2cnc3ccccn23)n1 [Example 9A, (2S)-1-[4-[4-[(5-chloro-4-imidazo[1,2-a]pyridin-3-yl-pyrimidin-2-yl)amino]-3-methoxy-phenoxy]-1-piperidyl]-2-hydroxy-propan-1-one]"
3,68,"COc1cc(C=O)ccc1Nc1ncc(Cl)c(-c2cnc3ccccn23)n1 [Example 20A, 4-(5-chloro-4-(imidazo[1,2-a]pyridin-3-yl)pyrimidin-2-ylamino)-3-methoxybenzaldehyde]"
4,22,"COc1cc(CN2CC(O)C2)ccc1Nc1ncc(Cl)c(-c2cnc3ccccn23)n1 [Example 21.16, 1-[[4-[(5-chloro-4-imidazo[1,2-a]pyridin-3-yl-pyrimidin-2-yl)amino]-3-methoxy-phenyl]methyl]azetidin-3-ol]"
5,25,"COc1cc(C(C)C(=O)N2CCNCC2)ccc1Nc1ncc(Cl)c(-c2cnc3ccccn23)n1 (stereo not shown) [Example 3.42, 2-[4-[(5-chloro-4-imidazo[1,2-a]pyridin-3-yl-pyrimidin-2-yl)amino]-3-methoxy-phenyl]-1-piperazin-1-yl-propan-1-one]"
